Test results published in PubChem BioAssay AID1259407 (Chemical Carcinogenesis Research Information System (CCRIS), 2018).
The source made the active and inactive calls. No rule for the calls is given here.

System: CCRIS mutagenicity, Ames/micronucleus/aberration tests
Experiment: CCRIS mutagenicity studies
[1] = Test System: AMES SALMONELLA TYPHIMURIUM, Strain/Indicator: TA98, Metabolic Activation: NONE, Method: STANDARD PLATE
[2] = Test System: AMES SALMONELLA TYPHIMURIUM, Strain/Indicator: TA100, Metabolic Activation: NONE, Method: STANDARD PLATE
[3] = Test System: AMES SALMONELLA TYPHIMURIUM, Strain/Indicator: TA1535, Metabolic Activation: NONE, Method: STANDARD PLATE
[4] = Test System: AMES SALMONELLA TYPHIMURIUM, Strain/Indicator: TA1537, Metabolic Activation: NONE, Method: STANDARD PLATE
[5] = Test System: AMES SALMONELLA TYPHIMURIUM, Strain/Indicator: TA98, Metabolic Activation: RAT, LIVER, S-9, AROCLOR 1254, Method: STANDARD PLATE
[6] = Test System: AMES SALMONELLA TYPHIMURIUM, Strain/Indicator: TA100, Metabolic Activation: RAT, LIVER, S-9, AROCLOR 1254, Method: STANDARD PLATE
[7] = Test System: AMES SALMONELLA TYPHIMURIUM, Strain/Indicator: TA1537, Metabolic Activation: RAT, LIVER, S-9, AROCLOR 1254, Method: STANDARD PLATE

| SMILES | mutagenic call [1] | mutagenic call [2] | mutagenic call [3] | mutagenic call [4] | mutagenic call [5] | mutagenic call [6] | mutagenic call [7] | other results |
| --- | --- | --- | --- | --- | --- | --- | --- | --- |
| Fc1cccc2c1ccc1cccnc12 |  |  |  |  |  |  |  | mutagenic call (Test System: AMES SALMONELLA TYPHIMURIUM, Strain/Indicator: TA100, Metabolic Activation: RAT, LIVER, S-9, PHENOBARBITAL AND 5,6-BENZOFLAVONE, Method: PREINCUBATION): active; positive |
| CC(CNC(=O)c1cccnc1)NC(=O)c1cccnc1 (stereo not given) | inactive; negative | inactive; negative | inactive; negative | inactive; negative |  |  |  | mutagenic call (Test System: AMES SALMONELLA TYPHIMURIUM, Strain/Indicator: TA98, Metabolic Activation: RAT, LIVER, S-9, PHENOBARBITAL AND 5,6-BENZOFLAVONE, Method: STANDARD PLATE): inactive; negative; mutagenic call (Test System: AMES SALMONELLA TYPHIMURIUM, Strain/Indicator: TA100, Metabolic Activation: RAT, LIVER, S-9, PHENOBARBITAL AND 5,6-BENZOFLAVONE, Method: STANDARD PLATE): inactive; negative; mutagenic call (Test System: AMES SALMONELLA TYPHIMURIUM, Strain/Indicator: TA1535, Metabolic Activation: RAT, LIVER, S-9, PHENOBARBITAL AND 5,6-BENZOFLAVONE, Method: STANDARD PLATE): inactive; negative; mutagenic call (Test System: AMES SALMONELLA TYPHIMURIUM, Strain/Indicator: TA1537, Metabolic Activation: RAT, LIVER, S-9, PHENOBARBITAL AND 5,6-BENZOFLAVONE, Method: STANDARD PLATE): inactive; negative; mutagenic call (Test System: E. COLI, Strain/Indicator: WP2 UVRA, Metabolic Activation: NONE, Method: STANDARD PLATE): inactive; negative; mutagenic call (Test System: E. COLI, Strain/Indicator: WP2 UVRA, Metabolic Activation: RAT, LIVER, S-9, PHENOBARBITAL AND 5,6-BENZOFLAVONE, Method: STANDARD PLATE): inactive; negative |
| CNC(=O)c1cccc2c(Nc3ccc(NS(C)(=O)=O)cc3OC)c3cccc(C)c3nc12 | inactive; negative | inactive; negative |  | active; positive | inactive; negative | inactive; negative | active; positive | mutagenic call (Test System: AMES SALMONELLA TYPHIMURIUM, Strain/Indicator: TA102, Metabolic Activation: NONE, Method: STANDARD PLATE): active; positive; mutagenic call (Test System: AMES SALMONELLA TYPHIMURIUM, Strain/Indicator: TA102, Metabolic Activation: RAT, LIVER, S-9, AROCLOR 1254, Method: STANDARD PLATE): active; positive; mutagenic call (Test System: CHINESE HAMSTER V-79, Strain/Indicator: V-79/6-THIOGUANINE, Metabolic Activation: NONE, Method: STANDARD PLATE): active; positive; mutagenic call (Test System: CHINESE HAMSTER V-79, Strain/Indicator: V-79/OUABAIN, Metabolic Activation: NONE, Method: STANDARD PLATE): inactive; negative |
| COc1c(Cl)ccc2oc3cc4c(c(OC)c3c(=O)c12)[C@@H]1C=CO[C@@H]1O4 | inactive; negative | active; positive |  |  | active; positive | active; positive |  |  |
| C=CC(=O)OCC(C)(C)C | inactive; negative | inactive; negative | inactive; negative | inactive; negative | inactive; negative | inactive; negative | inactive; negative | mutagenic call (Test System: AMES SALMONELLA TYPHIMURIUM, Strain/Indicator: TA98, Metabolic Activation: RAT, LIVER, S-9, SODIUM PHENOBARBITAL, Method: STANDARD PLATE): inactive; negative; mutagenic call (Test System: AMES SALMONELLA TYPHIMURIUM, Strain/Indicator: TA100, Metabolic Activation: RAT, LIVER, S-9, SODIUM PHENOBARBITAL, Method: STANDARD PLATE): inactive; negative; mutagenic call (Test System: AMES SALMONELLA TYPHIMURIUM, Strain/Indicator: TA1535, Metabolic Activation: RAT, LIVER, S-9, AROCLOR 1254, Method: STANDARD PLATE): inactive; negative; mutagenic call (Test System: AMES SALMONELLA TYPHIMURIUM, Strain/Indicator: TA1535, Metabolic Activation: RAT, LIVER, S-9, SODIUM PHENOBARBITAL, Method: STANDARD PLATE): inactive; negative; mutagenic call (Test System: AMES SALMONELLA TYPHIMURIUM, Strain/Indicator: TA1537, Metabolic Activation: RAT, LIVER, S-9, SODIUM PHENOBARBITAL, Method: STANDARD PLATE): inactive; negative; mutagenic call (Test System: AMES SALMONELLA TYPHIMURIUM, Strain/Indicator: TA1538, Metabolic Activation: NONE, Method: STANDARD PLATE): inactive; negative; mutagenic call (Test System: AMES SALMONELLA TYPHIMURIUM, Strain/Indicator: TA1538, Metabolic Activation: RAT, LIVER, S-9, AROCLOR 1254, Method: STANDARD PLATE): inactive; negative; mutagenic call (Test System: AMES SALMONELLA TYPHIMURIUM, Strain/Indicator: TA1538, Metabolic Activation: RAT, LIVER, S-9, SODIUM PHENOBARBITAL, Method: STANDARD PLATE): inactive; negative |
